This note sets out measurements from PubChem BioAssay AID1552 (Sanford-Burnham Center for Chemical Genomics, 2009).

Each structure is given as a SMILES string. The source made the active and inactive calls. No rule for the calls is given here.

As a reminder, the Kd is the free concentration of one partner at which half of the binding sites on the other are occupied at equilibrium, for simple one-to-one binding.

The target of this assay is Ubiquitin-conjugating enzyme E2 N (Homo sapiens) (UniProt P61088). The assay is described as follows: NMR detection of UBE2N ligand binding – biophysical, purified protein (AID 1552). The settings on record: NMR binding to purified UBE2N.
Sequence of Ubiquitin-conjugating enzyme E2 N (Homo sapiens) (P61088 whole entry, looked up): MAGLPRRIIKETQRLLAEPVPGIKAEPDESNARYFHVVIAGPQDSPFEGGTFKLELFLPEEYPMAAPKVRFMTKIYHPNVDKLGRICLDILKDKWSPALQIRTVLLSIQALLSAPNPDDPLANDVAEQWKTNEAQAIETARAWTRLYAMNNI
In the case of `CSc1nc2nccc(N)n2n1`, the Kd is > 4 mM (inactive).
Consider `CC(C)=CC(=O)Nc1ccccc1C(N)=O`, for which the Kd was > 4 mM (inactive).
Under `Cc1noc(C)c1C(=O)Nc1ccccn1` stands > 4 mM (inactive); under `Cc1cc(C)nc(N(C#N)Cc2ccccc2)n1`, > 4 mM (inactive); under `CNC(=O)c1c(O)c2ccccc2[nH]c1=O`, > 4 mM (inactive).
Consider `O=C(Nc1nncs1)C1(c2ccccc2)CCCC1`, for which the Kd was > 4 mM (inactive).
`COc1cc2c(c(OC)c1OC)-c1ccc(OC)c(=O)cc1[C@@H](NC(C)=O)CC2`: the Kd is > 4 mM (inactive).
As for `Nc1cccnc1N1CCOCC1`, the figure is > 4 mM (inactive); as for `CCn1c(-c2ccccc2)n[nH]c1=S`, > 4 mM (inactive).
Consider `Cc1csc2nc(=O)c3ccccc3n12`, for which the Kd is > 4 mM (inactive).
Consider `Cc1ccc(-c2c(C)n([O-])c3c([n+]2=O)CCCC3)o1`, for which the Kd is > 4 mM (inactive).
On to `O=C(NCc1cccs1)c1ccncc1`, for which the Kd was > 4 mM (inactive).
Under `Cc1ccc(OCC(=O)n2cnnc2N)c(C)c1` stands > 4 mM (inactive); under `Cc1onc(-c2ccc(F)cc2)c1C(=O)O`, > 4 mM (inactive).
In the case of `COc1ccc(-c2cc3nc4n(c(=O)c3s2)CCC4)cc1`, the Kd is > 4 mM (inactive).
`CNCc1ccco1`: the Kd is > 4 mM (inactive).
Under `COC(=O)c1ccc(N2CCCC2)nc1` stands > 4 mM (inactive); under `O=S1(=O)CCC(NC(=S)N2CCOCC2)C1` (configuration not stated), > 4 mM (inactive).
With `O=C(O)[C@H](O)[C@@](O)(Cc1ccc(O)cc1)C(=O)O`, the Kd was > 4 mM (inactive).
Under `c1ccc2[nH]c(SCc3cscn3)nc2c1` stands > 4 mM (inactive); under `O=C1c2ccccc2C(=O)c2c1ccc(O)c2O`, > 4 mM (inactive); under `COc1cc(-c2nnc(NC(C)=O)o2)cc(OC)c1OC`, > 4 mM (inactive).
As for `O=c1n(-c2cccc(Cl)c2)c(=O)n2n1CCC2`, the figure is > 4 mM (inactive); as for `O=C(NC1=NCCS1)c1ccc([N+](=O)[O-])cc1Cl`, > 4 mM (inactive); as for `O=C(O)CN1CCNCC1`, > 4 mM (inactive).
As for `Nc1ncnc(NCCCO)c1[N+](=O)[O-]`, the figure is > 4 mM (inactive).
`COC(=O)c1cccc(N)c1`: the Kd is > 4 mM (inactive).
Under `C=C1C2CC[C@@]3(C)[C@H](c4ccoc4)OC(=O)C[C@]13O[C@H]1C[C@H](OC(C)=O)C(C)(C)[C@H](CC(=O)OC)[C@@]21C` stands > 4 mM (inactive); under `CCOC(=O)C1CCN(Cc2ccccc2)CC1=O` (configuration not stated), > 4 mM (inactive); under `COc1ccc2c(c1)C(NC(C)=O)C(=O)N2C` (configuration not stated), > 4 mM (inactive).
As for `O=C(CSc1ccccc1)N1CCC2(CC1)OCCO2`, the figure is > 4 mM (inactive); as for `CC(=O)Nc1cccc(-c2nc3ccccc3c(=O)o2)c1`, > 4 mM (inactive); as for `COc1cc(OC)c2c(=O)c(O)c(-c3ccc(OC)c(OC)c3)oc2c1`, > 4 mM (inactive).
Under `COc1cc(C(C)=O)ccc1OCC(O)Cn1ccnc1` (configuration not stated) stands > 4 mM (inactive); under `CCOc1cc(C)c(Cl)cc1S(=O)(=O)N(C)C`, > 4 mM (inactive); under `COc1ccc(C)cc1S(=O)(=O)NC1CCCC1`, > 4 mM (inactive).
As to `COc1cc(C)nc(N(CCO)CCO)n1`, the Kd is > 4 mM (inactive).
Regarding `CC(=O)Nc1ccc(NC(=O)/C=C\C(=O)O)cc1`, the Kd is > 4 mM (inactive).
As for `NCc1n[nH]c(=O)c2ccccc12`, the figure is > 4 mM (inactive); as for `C/C=C(/C)C(=O)O[C@H]1CC[C@@]2(C)[C@@H]3CC[C@H]4[C@]5(O)C[C@H](O)[C@@]6(O)[C@@H](CN7C[C@@H](C)CC[C@H]7[C@@]6(C)O)[C@]5(O)C[C@@]42OC13O`, > 4 mM (inactive); as for `Cc1oc(-c2ccccc2)cc1C(N)=O`, > 4 mM (inactive).
Under `CC(=O)CNc1cc(CNC(C)=O)c(C)cc1C` stands > 4 mM (inactive); under `C[C@@H]1CC[C@H]2[C@@H](C)C(=O)O[C@@H]3OC4(C)CC[C@@H]1[C@]32OO4`, > 4 mM (inactive); under `Oc1cc(O)c2c(c1)O[C@H](c1ccc(O)c(O)c1)[C@@H](O)C2`, > 4 mM (inactive).
Regarding `Cc1ccccc1NC(=S)NCCO`, the Kd was > 4 mM (inactive).
On to `NCc1ccc(-c2cccs2)s1`, for which the Kd was > 4 mM (inactive).
Regarding `COC1CC(O[C@H]2CC[C@]3(C=O)C4CC[C@]5(C)C(C6=CC(=O)OC6)CC[C@]5(O)C4CC[C@]3(O)C2)OC(C)C1O` (some centres not stated), the Kd was > 4 mM (inactive).
Take `COC(=O)CC1C(C)(C)C(OC(C)=O)[C@@H]2[C@@H](OC(C)=O)[C@]34O[C@@]2(O)[C@]1(C)C3CC[C@]1(C)C4=CC(=O)O[C@H]1c1ccoc1` (some centres not stated): the Kd is > 4 mM (inactive).
Take `Cc1cc(=O)[nH]c(N2CCCCC2)n1`: the Kd is > 4 mM (inactive).
For the molecule `COc1ccc(/C=C2/NC(=S)NC2=O)cc1`, the Kd is > 4 mM (inactive).
As to `OC(CCl)c1ccc(-n2cncn2)cc1` (configuration not stated), the Kd was > 4 mM (inactive).
`O=C1CNc2cc(C(=O)O)ccc2N1`: the Kd was > 4 mM (inactive).
As to `Cn1c(=O)[nH]c(=O)c2c1ncn2CCN1CCCCC1`, the Kd was > 4 mM (inactive).
Turning to `Cn1nnc2cc(C(=O)Nc3cccnc3)ccc21`, the Kd was > 4 mM (inactive).
As for `CC(=O)O[C@H]1C[C@@H](OC(C)=O)C(C)(C)C2C[C@@H](OC(C)=O)[C@]3(C)C([C@H](OC(C)=O)C[C@@]4(C)[C@H](c5ccoc5)OC(=O)[C@H]5O[C@]543)[C@]21C` (some centres not stated), the figure is > 4 mM (inactive).
Turning to `CC12CN(CC#N)CC(C)(CN(CC#N)C1)C2=O`, the Kd was > 4 mM (inactive).
In the case of `CC(=O)c1ccc(NS(=O)(=O)c2cccc(C)c2)cc1`, the Kd is > 4 mM (inactive).
In the case of `O=C(Nn1cnnc1)c1cc2c(s1)CCCC2`, the Kd was > 4 mM (inactive).
Regarding `NC(=NCCC[C@H](N)C(=O)O)NC(CCC(=O)O)C(=O)O` (some centres not stated), the Kd is > 4 mM (inactive).
With `O=C1CSC(=Nc2ccc(O)cc2)N1`, the Kd was > 4 mM (inactive).
Under `CCC(CCC(C)[C@H]1CCC2C3CC=C4C[C@@H](O)CC[C@]4(C)C3CC[C@@]21C)C(C)C` (some centres not stated) stands > 4 mM (inactive); under `CC1(C)C=CC(=O)[C@@]2(C)C1CC(=O)[C@]1(C)C2CC[C@@]2(C)[C@H](c3ccoc3)OC(=O)C3OC321` (some centres not stated), > 4 mM (inactive); under `O=c1ccc2nc3ccccc3c(=O)n2[nH]1`, > 4 mM (inactive).
As for `Cc1cc(NC(=O)Cc2c(F)cccc2Cl)no1`, the figure is > 4 mM (inactive); as for `O=c1[nH]cc(NCc2ccco2)c(=O)[nH]1`, > 4 mM (inactive).
Consider `COc1ccc(-c2cc(=O)c3c(OC(C)=O)cc(OC(C)=O)cc3o2)cc1`, for which the Kd was > 4 mM (inactive).
With `CC(=O)c1ccc2c(c1)OCCO2`, the Kd was > 4 mM (inactive).
Consider `O=C(c1ccncc1)c1ccc(Br)cc1`, for which the Kd was > 4 mM (inactive).
In the case of `COC(=O)C1Cc2ccccc2N1` (configuration not stated), the Kd was > 4 mM (inactive).
In the case of `Cc1nc(N)sc1C(=O)Nc1nccs1`, the Kd is > 4 mM (inactive).
Take `O=CN1CCN(C(=O)c2ccccc2Cl)CC1`: the Kd is > 4 mM (inactive).
For `C=CCn1c(=S)[nH]c2ccc(Br)cc2c1=O`, the Kd was > 4 mM (inactive).
With `c1ccc(-c2csc(Nc3cccnc3)n2)nc1`, the Kd is > 4 mM (inactive).
On to `C=C1CCC(=O)C(C)CCC2C1CC2(C)C` (configuration not stated), for which the Kd was > 4 mM (inactive).
For `CC(=O)Cc1nsc(NC(=O)c2ccc(C)cc2)n1`, the Kd is > 4 mM (inactive).
For the molecule `CN1CCC(NC(=O)Cc2c(F)cccc2Cl)CC1`, the Kd is > 4 mM (inactive).
As for `Cc1cc(C)n(CC(=O)O)n1`, the figure is > 4 mM (inactive); as for `COC(=O)c1ccccc1NC(=O)c1cc[n+]([O-])cc1`, > 4 mM (inactive).
Under `C/C=C/C=N/NC(=O)c1ccc(=O)n(C)c1` stands > 4 mM (inactive); under `O=C(NCCO)NC(=S)c1ccccc1`, > 4 mM (inactive).
As for `CC(=O)Oc1cc(OC(C)=O)c2c(c1)O[C@H](c1ccc(OC(C)=O)c(OC(C)=O)c1)[C@H](OC(C)=O)C2`, the Kd is > 4 mM (inactive).
`CC1=CC(C)C(C(=O)O)C(C(=O)N2CCN(C)CC2)C1` (configuration not stated): the Kd was > 4 mM (inactive).
For the molecule `Cn1cnc2c(cnn2-c2ccccc2)c1=O`, the Kd is > 4 mM (inactive).
As for `CN1CN(Cc2ccccc2)CN/C1=N/[N+](=O)[O-]`, the Kd is > 4 mM (inactive).
Under `O=C(O)C1COc2ccccc2O1` (configuration not stated) stands > 4 mM (inactive); under `Clc1ccccc1-c1nc(-c2cccnc2)no1`, > 4 mM (inactive).
Take `COC(=O)C[C@@H]1C2(C)C(=O)[C@@H](CC3=C4C=C(OC)O[C@@H](c5ccoc5)[C@]4(C)CCC32)[C@H](O)C1(C)C` (some centres not stated): the Kd was > 4 mM (inactive).
For the molecule `NC1=NC(=O)C(CC(=O)Nc2ccccc2F)S1` (configuration not stated), the Kd is > 4 mM (inactive).
Turning to `COc1ccc2c(=O)c(CC(=O)O)coc2c1`, the Kd is > 4 mM (inactive).
As for `NS(=O)(=O)c1ccc(N=Cc2cccs2)cc1`, the figure is > 4 mM (inactive).
As for `CCN1C(=O)c2c(C)nc3ccccc3c2C1=O`, the Kd was > 4 mM (inactive).
In the case of `O=C(Nc1nnc(-c2ccncc2)o1)c1cccs1`, the Kd was > 4 mM (inactive).
For the molecule `CC(O)C(=O)N/N=C/c1cccs1` (configuration not stated), the Kd is > 4 mM (inactive).
In the case of `NNC(=O)c1ccccc1-n1cccc1`, the Kd is > 4 mM (inactive).
`CC(=O)Nc1nnc(-c2ccco2)o1`: the Kd was > 4 mM (inactive).
Under `Cn1c(CN)nc2ccccc21` stands > 4 mM (inactive); under `CCOc1cccc(C(=O)c2ccc(O)c(O)c2O)c1`, > 4 mM (inactive).
